Measurements: patent US20220389009A1, “SUBSTITUTED 1,6-NAPHTHYRIDINE INHIBITORS OF CDK5” (Goldfinch Bio, Inc., priority 2019, published 2022)

How the values were obtained:
CDK5/p25 = CDK5/p25 (Homo sapiens, UniProt Q00535); experiment: CDK5 mobility shift assay (enzymatic activity of CDK5/p25); assay type: biochemical; conditions: for IC50: 0.154 nM CDK5/p25, FL peptide 29, 60 min at room temperature, read-out: CDK5 IC50; for CDK5/CDK2 specificity: fold more active against CDK5 than CDK2
How it was run: (§1)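 Carna CDK5/p25 (0.154 nM) or CDK2/CycA2 (1.25 nM) was preincubated 30 min with compound, ATP ([…] for CDK5; 37 μM for CDK2) and 10 mM MgCl2 in HEPES pH 7.5. The reaction was started with 1.5 μM FL peptide (29 for CDK5, 18 for CDK2) and run 60 min (CDK5) or 120 min (CDK2) at room temperature. Product was read by mobility shift, with IC50 from a 4-parameter fit.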

CDK2/CycA2 = CDK2/CycA2 (Homo sapiens, UniProt P24941); experiment: CDK2 mobility shift assay (enzymatic activity of CDK2/CycA2); assay type: biochemical; conditions: 1.25 nM CDK2/CycA2, 37 μM ATP, FL Peptide 18, 120 min at room temperature; read-out: CDK2 IC50
How it was run: as §1

CDK5/p25, sequence (Q00535 whole entry): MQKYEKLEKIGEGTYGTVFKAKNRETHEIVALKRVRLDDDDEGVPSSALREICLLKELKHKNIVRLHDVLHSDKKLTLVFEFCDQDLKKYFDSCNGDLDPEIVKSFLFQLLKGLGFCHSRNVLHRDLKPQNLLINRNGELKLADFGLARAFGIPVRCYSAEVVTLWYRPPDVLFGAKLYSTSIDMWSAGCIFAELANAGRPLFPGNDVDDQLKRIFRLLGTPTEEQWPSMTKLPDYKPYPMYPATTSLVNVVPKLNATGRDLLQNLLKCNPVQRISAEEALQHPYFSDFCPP
CDK5/p25, sequence (Q15078 99-307 partner limits assumed): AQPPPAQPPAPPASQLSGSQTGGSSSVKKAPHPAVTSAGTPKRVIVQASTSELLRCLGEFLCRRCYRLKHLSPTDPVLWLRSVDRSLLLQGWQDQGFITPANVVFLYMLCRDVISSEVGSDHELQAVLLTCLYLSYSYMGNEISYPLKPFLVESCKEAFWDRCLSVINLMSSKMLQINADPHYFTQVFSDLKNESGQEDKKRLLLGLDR

| SMILES | IC50 (CDK5/p25) | CDK5/CDK2 specificity (CDK5/p25) | IC50 (CDK2/CycA2) |
| --- | --- | --- | --- |
| CC(C)N1CCC(S(=O)(=O)c2ccc3cnc(Nc4ccc(-n5cccn5)cc4F)cc3n2)CC1 [Compound 380] | 0.01 to 0.1 µM | ++ (greater than 10-fold and less than or equal to 100-fold more active against CDK5 than CDK2) | 0.1 to 1 µM |
| CN1CCC(/C(=N/O)c2ccc3cnc(Nc4ccc(-n5cccn5)cc4F)cc3n2)CC1 [Compound 381] | 0.01 to 0.1 µM | + (10-fold or less more active against CDK5 than CDK2) | 0.1 to 1 µM |
| Cc1cccc(Nc2cc3nc(S(=O)(=O)C4CCN(C)CC4)ccc3cn2)c1 [Compound 382] | < 0.01 µM | +++ (greater than 100-fold more active against CDK5 than CDK2) | 0.01 to 0.1 µM |
| CN1CCC(C(C)(O)c2ccc3cnc(Nc4ccc(-c5ccc(=O)[nH]c5)cc4F)cc3n2)CC1 (stereo not drawn) [Compound 383] | < 0.01 µM | ++ (greater than 10-fold and less than or equal to 100-fold more active against CDK5 than CDK2) | 0.01 to 0.1 µM |
| CCN1CCC(S(=O)(=O)c2ccc3cnc(Nc4ccc(-n5cccn5)cc4F)cc3n2)CC1 [Compound 384] | < 0.01 µM | +++ (greater than 100-fold more active against CDK5 than CDK2) | 0.1 to 1 µM |
| CN1CCC(S(=O)(=O)c2ccc3cnc(Nc4ccccc4)cc3n2)CC1 [Compound 385] | < 0.01 µM | ++ (greater than 10-fold and less than or equal to 100-fold more active against CDK5 than CDK2) | 0.01 to 0.1 µM |
| CC(c1ccc2cnc(Nc3ccc(-n4cccn4)cc3F)cc2n1)C1CCN(C)CC1 (stereo not drawn) [Compound 386] | < 0.01 µM | ++ (greater than 10-fold and less than or equal to 100-fold more active against CDK5 than CDK2) | 0.1 to 1 µM |
| CCC(O)(c1ccc2cnc(Nc3ccc(-n4cccn4)cc3F)cc2n1)C1CCN(C)CC1 (stereo not drawn) [Compound 389] | > 1 µM | ++ (greater than 10-fold and less than or equal to 100-fold more active against CDK5 than CDK2) | > 1 µM |
| Cc1ccc(F)c(Nc2cc3nc(C(O)(C4CCN(C)CC4)C(F)(F)F)ccc3cn2)c1 (stereo not drawn) [Compound 390] | 0.1 to 1 µM | ++ (greater than 10-fold and less than or equal to 100-fold more active against CDK5 than CDK2) | > 1 µM |
| CCC(O)(c1ccc2cnc(Nc3ccc(-n4cccn4)cc3F)cc2n1)C1CCN(C)CC1 (stereo not drawn) [Compound 392] | 0.01 to 0.1 µM | ++ (greater than 10-fold and less than or equal to 100-fold more active against CDK5 than CDK2) | 0.1 to 1 µM |
| CN1CCC(C(C)(O)c2ccc3cnc(Nc4ccc(-c5cccc(=O)[nH]5)cc4F)cc3n2)CC1 (stereo not drawn) [Compound 393] | < 0.01 µM | ++ (greater than 10-fold and less than or equal to 100-fold more active against CDK5 than CDK2) | 0.01 to 0.1 µM |
| Cc1ccc(F)c(Nc2cc3nc(C(O)(C4CCN(C)CC4)C(F)(F)F)ccc3cn2)c1 (stereo not drawn) [Compound 394] | < 0.01 µM | ++ (greater than 10-fold and less than or equal to 100-fold more active against CDK5 than CDK2) | 0.01 to 0.1 µM |
| CC(c1ccc2cnc(Nc3ccc(-c4cccc(C(N)=O)c4)cc3F)cc2n1)C1CCN(C)CC1 (stereo not drawn) [Compound 410, 3′-fluoro-4′-([2-[1-(1-methylpiperidin-4-yl)ethyl]-1,6-naphthyridin-7-yl]amino)-[1,1′-biphenyl]-3-carboxamide] | < 0.01 µM | +++ (greater than 100-fold more active against CDK5 than CDK2) | 0.1 to 1 µM |
| CN1CCC([C@@](C)(O)c2ccc3cnc(Nc4ccc(-c5cc[nH]n5)cc4F)cc3n2)CC1 [Compound 414, (1R)-1-(7-[[2-fluoro-4-(1H-pyrazol-3-yl)phenyl]amino]-1,6-naphthyridin-2-yl)-1-(1-methylpiperidin-4-yl)ethanol] | < 0.01 µM | ++ (greater than 10-fold and less than or equal to 100-fold more active against CDK5 than CDK2) | 0.01 to 0.1 µM |
